Reference: US20200155434A1, “SKIN CLEANSING COMPOSITION” (KAO CORPORATION, priority 2017, published 2020)

Assays:
[1] = cited from earlier work
[2] = at 25° C.; cited from earlier work
[3] = Detergency against keratotic plug after washing with water; design: species or system human; conditions: sample substituted with water; Table 1 samples
Experimental: After one minute from the contact of the keratotic plugs with the sample, Kimwipes (registered trademark) was brought into contact with an edge of the cover glass to remove the sample under the cover glass. Then, 0.05 mL of water was gradually dropwise added to an edge of the cover glass. The sample dropwise-added with water was recorded with the digital microscope, and the collapse state of the keratotic plugs was evaluated after one minute from the contact of the keratotic plugs with water according to the criteria for evaluating collapsibility of the keratotic plugs. The results of the evaluation are shown in the column “Keratotic plug detergency (during washing with water)” in Table. The measurements were performed at 25° C.

[4] = Detergency against keratotic plug during cleansing (penetration and collapse under digital microscope); design: species or system human; conditions: Table 1 samples; for Penetration of the sample into keratotic plugs (in words): contact with sample for 1 minute; for Collapse of keratotic plugs in contact with the sample (in words): assumption of cleansing
Experimental: Keratotic plugs in the nasal region were removed with “Biore Nose Pack (manufactured by Kao Corporation)”, the resulting keratotic plugs on the pack were gently taken out with tweezers.
The resulting keratotic plugs were placed on a slide glass and were covered with a cover glass, and 0.05 mL of a sample was dropwise added to an edge of the cover glass. Consequently, the sample entered into the gap between the slide glass and the cover glass by capillary phenomenon and was brought into contact with the keratotic plugs. The contact of the keratotic plugs and the sample was recorded with a digital microscope (VHX-5000, manufactured by Keyence Corporation, magnification: 150×), and the penetration of the sample into the keratotic plugs and the collapse state of the keratotic plugs were evaluated after one minute from the contact of the keratotic plugs with the sample. The results of each evaluation are shown in the columns “Keratotic plug detergency (penetration)” and “Keratotic plug detergency (during cleansing)” in Tables. The measurements were performed at 25° C.
The penetration was relatively evaluated by criteria with 11 ratings starting from the rating 1 “the sample hardly penetrated into the keratotic plug” to the rating 11 “the sample penetrated to the center of the keratotic plug”. The collapsibility by the detergency against keratotic plug was relatively evaluated by criteria with 11 ratings starting from the rating 1 “almost no change is observed in the external appearance of the keratotic plug” to the rating 11 “peeling or separation is observed in the area from the surface layer to the central portion of the keratotic plug (the initial appearance of the keratotic plug is not retained)”.

[5] = system: insoluble protein (seine protein); assay: Effect of suppressing protein aggregation; type: physicochemical; conditions: Table 1 sample
Experimental: Thirty milliliters of a sample and 0.06 g of an insoluble protein (seine protein) were placed in a 35-mL standard glass bottle, and the concentration of the insoluble protein was adjusted to 0.2 mass % (test sample). Separately, a standard sample was prepared by using water instead of the sample and adjusting the concentration of the insoluble protein to 0.2 mass %. Subsequently, the standard glass bottles were sufficiently shaken and stirred up and down (shake width: 15 cm, 20 times at a rate of 5 times for 3 seconds) in a thermostatic chamber of 25° C. and were left to stand for 3 minutes. The precipitation state of the insoluble protein was then visually verified, and the ratio of the amount of the precipitated standard sample to the amount of the precipitated test sample (the height of the precipitate in each standard glass bottle was measured as the precipitation amount), (precipitation amount of standard sample)/(precipitation amount of test sample), was calculated. A higher ratio indicates a higher effect of suppressing protein aggregation.

Molecule	Solubility in water (in words) [1]	pKa [2]	Collapse of keratotic plugs during washing with water (in words) [3]	Penetration of the sample into keratotic plugs (in words) [4]	Collapse of keratotic plugs in contact with the sample (in words) [4]	Action on proteins (in words) [5]
NC(CO)(CO)CO [Tris, 2-amino-2-hydroxymethyl-1,3-propanediol]	readily dissolved in water	8.03	further accelerating the collapse of keratotic plugs	penetrated into keratotic plugs	–	–
CC(N)(CO)CO [AMPD, 2-amino-2-methyl-1,3-propanediol]	–	8.76	–	–	–	–
O=P([O-])([O-])O.[Na+].[Na+] [disodium hydrogen phosphate]	–	–	collapse of keratotic plugs did not progress	hardly penetrated into keratotic plugs	collapse of the keratotic plugs did not progress	–
CC(C)(N)CO [AMP, 2-amino-2-methyl-1-propanol]	readily dissolved in water	9.72	–	–	–	–
O=P([O-])([O-])[O-].[Na+].[Na+].[Na+] [trisodium phosphate]	–	–	collapse of keratotic plugs did not progress	hardly penetrated into keratotic plugs	collapse of the keratotic plugs did not progress	–
sodium polyoxyethylene (2) lauryl ether sulfate [POE (2) sodium lauryl sulfate]	–	–	–	hardly penetrated into the keratotic plugs	collapse of the keratotic plugs did not progress	dissolve the proteins
O=C([O-])O.[Na+] [sodium hydrogen carbonate]	–	–	collapse of keratotic plugs did not progress	hardly penetrated into keratotic plugs	collapse of the keratotic plugs did not progress	–
